The results in this text go back to patent US20050054653A1, “Pteridine derivatives, method of producing them and their application” (Faustus Forschungs Cie. Translational Cancer Research GmbH, priority 2002, published 2005).

Type in all cases: cell-based
One test relates to human cell line LXFL529L. As to the kind of experiment: Proliferation assay (sulforhodamin B assay), growth inhibition of tumor cells. The conditions noted are these: LXFL 529L. As for the experimental part: The inhibition of the growth of tumor cells due to the compounds according to the invention was determined on the human cell line LXFL529L. As a proliferation assay the sulforhodamin B assay as described by Skehan et al. (J. Natl. Cancer Inst. 82:1107-1112 (1990)) was used.

A further test deals with COLO 205. As to the kind of experiment: Growth inhibition of human tumor cell line COLO 205. The note with it: COLO 205 colon carcinoma. From the text:
(§1) FIG. 1 is a representation of the IC50 values of the growth inhibition when using the compounds E288, E289 and E499 on the human tumor cell lines COLO 205 and NCI-H460.
(§2) Further in-vitro results of the compounds according to the invention E288 (6-chloro-2-piperazino-4,7-dithiazolidino-pteridine) and E289 (6-methoxy-2-piperazino-4,7-dithiazolidino-pteridine) are summarized in the following in comparison to E499 (6-chloro-2-piperazino-4,7-dipyrrolidino-pteridine) (all IC50 figures are described in [μM]).
(§3) This includes the human cell lines A431 ([…]), OVCAR-3 (ovarian carcinoma), BT-549 and MCF-7 (mammary carcinoma), SK-MEL-28 and SK-MEL-5 (melanoma), SW 620 and HCT-15 (colon), A549 (lung carcinoma) as well as the glioblastoma cell line C6 of the rat.

The next test deals with NCI-H460. Description: Growth inhibition of human tumor cell line NCI-H460. The note with it: NCI-H460 bronchial carcinoma.
Excerpt: as §1, §2, §3

Compound `CSc1nc2c(N3CCCC3)nc(N3CCNCC3)nc2nc1N1CCCC1` [E 294, 6-Methylthio-2-Piperazino-4,7-Dipyrrolidino-Pteridine] yielded an IC50 in the test on human cell line LXFL529L of 3 ± 0.3 µM. Consider `Clc1nc2c(N3CCSC3)nc(N3CCNCC3)nc2nc1N1CCSC1` [E288, 6-Chloro-2-Piperazino-4,7-Dithiazolidino-Pteridine], for which the values for the IC50 in the test with COLO 205 and with NCI-H460 were 6.19 µM and 18.2 µM, respectively. In turn, `COc1nc2c(N3CCCC3)nc(N3CCNCC3)nc2nc1N1CCCC1` [E 293, 6-Methoxy-2-Piperazino-4,7-Dipyrrolidino-Pteridine] had an IC50 in the test with human cell line LXFL529L of 3.4 ± 1 µM. As to `Clc1nc2c(N3CCCC3)nc(N3CCNCC3)nc2nc1N1CCCC1` [E499, 6-Chloro-2-Piperazino-4,7-Dipyrrolidino-Pteridine], the IC50 came out at 9.75 µM in the test on COLO 205 (Homo sapiens) and 31.6 µM in the test on NCI-H460 (Homo sapiens). In the case of `COc1nc2c(N3CCSC3)nc(N3CCNCC3)nc2nc1N1CCSC1` [E289, 6-Methoxy-2-Piperazino-4,7-Dithiazolidino-Pteridine], the half-inhibitory concentration (IC50) turned out to be 9.64 µM in the test on COLO 205 and 13.9 µM in the test with NCI-H460.
